For data set [1], the system named is liver MPS NASH model + TGFβ (PHH, KC and HSC co-cultures, high fat). Briefly: Fibrosis-associated soluble biomarkers (TIMP-1, pro-collagen 1) in liver MPS NASH model with TGFβ dosed with OCA or ELF (Fig 6b). It counts as cell-based, human. As to conditions: for Pro-collagen 1 / TIMP-1: NASH + TGF, individual replicates. From the text: The systems biology approach identified TGFβ to be a key driver in creating a more advanced NASH phenotype in the MPS model, with enhanced fibrotic markers and reduced liver function. […] Therefore, we explored how effective pharmacological intervention would be for NASH microtissues with high NPC numbers supplemented with TGFβ and exposed them to varying concentrations of OCA and ELF QD as previously described (Supp. Fig. 6a). […] OCA had the greatest effect on IL-1Rα whereas ELF had the greatest effect on MCP-1 reflecting the fact that while both candidate drugs have anti-inflammatory properties, but their mechanisms of action are different. […] Finally, we used our quantitative fibrosis imaging assay to assess the effect of each candidate drug on collagen-1 deposition and α-SMA expression (Fig. 6c). […] Both candidate drugs caused a significant reduction in collagen-1 deposition and α-SMA expression, with the highest concentrations of OCA and ELF causing an 80% reduction in α-SMA expression and a 75% reduction in collagen-1 deposition (Fig. 6c).
Fig. 6 Using enhanced liver MPS NASH model with TGFβ, Obeticholic acid and Elafibranor modulate disease phenotype to a greater extent than in standard NASH model. PHH, KC and HSC co-cultures were cultured in the MPS platform under high-fat conditions and dosed with varying concentrations of Obeticholic acid (OCA) and Elafibranor (ELF) QD or vehicle control for 10 days, following an initial 4-day pre-culture phase. Throughout the compound dosing period TGFβ was also dosed onto all microtissues (NASH only vehicle control samples were also included in the study for comparison, which were not treated with TGFβ or dosed with any compound). a The secreted cytokine profile from treated liver microtissues was compared to determine the effects of each compound on the inflammatory profile of the liver with samples analysed at day 8 and 14 of the culture. Data were normalised by Z-transformation to allow comparison of all analytes (white = undetected). b The expression of fibrosis-associated biomarkers was analysed on day 14 media samples and compared to NASH + TGFβ control samples. c Liver microtissues were stained for collagen-type I, α-SMA, nuclei (DAPI), phalloidin (green) and imaged by confocal microscopy. Representative images are shown and scale bars 200 µm. Staining of microtissues was quantified by measuring total fluorescence intensity throughout individual microtissues, each data point represents an average of all microtissues per MPS culture (min 8, max 20). All datapoints shown with error bars highlighting means ± SD, all data from a minimum of three independent cultures: all comparisons were made to NASH + TGFβ control samples.
(§1) Soluble biomarkers in cell culture medium from the MPS were analysed by enzyme-linked immunosorbent assay (ELISA); IL-6 was measured by Human IL-6 DuoSet ELISA (R&D Systems); MCP-1 was measured by Human CCL2/MCP-1 DuoSet ELISA (R&D Systems); pro-collagen 1 was measured by Human Pro-Collagen I α1 DuoSet (R&D Systems); TIMP-1 was measured by Human TIMP-1 Quantikine ELISA Kit (R&D Systems); Fibronectin was measured by Human Fibronectin DuoSet ELISA (R&D Systems); YKL-40 was measured by Human Chitinase 3-like 1 Quantikine ELISA Kit (R&D Systems); Albumin secretion was measured by Human Albumin AssayMax™ ELISA kit (Assay Pro, St. Charles, MO). For all assays, the manufacturer’s protocol was followed.
Liver microtissues were cultured for 4 days in HEP-FAT medium, before dosing with obeticholic acid or elafibranor. Both compounds were dissolved in DMSO, diluted in cell culture medium (final DMSO concentration ≤1%) and added to microtissues during a full medium change every two days and in addition on the intervening days compounds were spiked into the media to increase drug concentration back to desired concentrations. Cultures were maintained in the presence of the compound, for a total of 10 days in the presence or absence of TGFβ.

Data set [2] relates to liver MPS NASH model (PHH, KC and HSC co-cultures, high fat). The data set is described as follows: Cell health in dosed NASH microtissues: tissue density (Hoechst) and albumin production (ELISA). Conditions: for cytotoxicity in NASH microtissues: QD for 10 days. It counts as cell-based, human. The method, then:
Following 10 days of compound treatment (Supp. Fig. 6a), NASH microtissues were assessed for the production of inflammatory and fibrotic biomarkers (Fig. 3a), the expression of pro-fibrotic genes (Fig. 3b) and the expression of collagen-1 and alpha SMA (Fig. 3c, d). […] Crucially using the developed quantitative imaging approach, both OCA and ELF abrogated α-SMA expression in a concentration-dependent manner by up to 50% and collagen-1 deposition was reduced by up to 35% (Fig. 3d).
as §1
Supplemental Figure 6 – Treatment of NASH microtissues in MPS platform with Obeticholic acid and […]
PHH, KC and HSC co-cultures were cultured in the MPS platform under high fat conditions and dosed with varying concentrations of Obeticholic acid (OCA) and Elafibranor (ELF) dosed QD for 10 days, following an initial 4-day pre-culture phase. A) Overview of the experimental timeline. B) Tissue density of scaffolds from each control was assessed by quantifying Hoechst staining in each FOV (8 FOV per culture) at the end of the study. C) Albumin production between conditions was compared by ELISA at two timepoints. All datapoint are shown and error bars highlight means ± SD.
(§2) (1 picture or pasted object on this page, not shown here)

A short description of data set [3]: Metabolic turnover (T1/2) in NASH liver microtissues in the MPS platform, LC-MS/MS. In kind it is in vitro ADME, human. As to conditions: human, NASH liver microtissues grown 7 days, medium sampled across 48 h. Here is the method:
Despite many on-going clinical trials, there is still no approved treatment for NASH, but emerging data provide confidence that NASH is a pharmacologically responsive disease. […] First, we set out to determine an optimal dosing strategy for each of the treatments based on an assessment of their physicochemical properties and pharmacokinetic behaviour within the MPS device (Table 1). Non-specific binding to the MPS device was determined after a 72 h incubation with each candidate drug at 1 μM (Table 1). Both candidate drugs were calculated to have less than 0.1% loss as a consequence of non-specific binding to the MPS device (Table 1). […] Because the hepatocytes within the MPS device are metabolically competent, we evaluated the half-life for each candidate drug in NASH microtissues.
To determine the metabolic turnover of obeticholic acid and elafibranor in the MPS platform, both compounds were incubated with liver microtissues for 48 h starting at 1 µM and media samples taken at regular intervals (AdooQ Bioscience, UK). The presence of each compound in the cell culture medium was quantified by liquid chromatography-tandem mass spectrometry (LC-MS/MS). Samples were separated using a Waters Acquity UPLC system with an ACE Excel C18-AR column and analysed on a Waters TQ-S Micro mass spectrometer against quantitative standard curves. Both compounds were also assessed for protein binding in HEP-Fat media using rapid equilibrium dialysis (RED) and quantified using the same LC-MS/MS methodology.
Supplemental Figure 5 – Obeticholic acid and Elafibranor are metabolised in the NASH MPS model.
The metabolism of a) Elafibranor and b) Obeticholic acid and was assessed in PHH, KC and HSC co-cultures grown in the liver MPS platform for 7 days. Following a double media exchange the compounds were incubated with the microtissues at a starting concentration of 1 µM and media samples taken at regular intervals across 48 hours. Media samples were assessed for the concentration of compound by quantitative LC-MS.
as §2

“And” between values parts separate entries of the source, which are not always exact repeats. Equal entries are not always repeated.

One may read the half-life as the time in which the quantity being followed falls by half. In the case of `CSc1ccc(C(=O)/C=C/c2cc(C)c(OC(C)(C)C(=O)O)c(C)c2)cc1` [Elafibranor], the “Pro-collagen 1” value is 415.15 pg/day and 440.97 pg/day and 422.37 pg/day in data set [1] (1.3 uM, listed as ELF); 371.17 pg/day and 444.41 pg/day and 309.29 pg/day in data set [1] (13 uM, listed as ELF); 282.32 pg/day and 426.16 pg/day and 245.63 pg/day in data set [1] (65 uM, listed as ELF). The TIMP-1 in data set [1] (1.3 uM, listed as ELF) was 239.08 pg/day and 252.67 pg/day and 220.1 pg/day; in data set [1] (13 uM, listed as ELF) it was 191.73 pg/day and 205.16 pg/day and 212.17 pg/day; in data set [1] (65 uM, listed as ELF), 278.05 pg/day and 246.83 pg/day and 169.84 pg/day. In data set [1] (NASH + TGFβ, day 14 media), the “soluble biomarkers TIMP-1 and pro-collagen 1” value is reported as “reduced by ELF treatment”. In addition, the “cytotoxicity in NASH microtissues” value in data set [2] is “does not cause cytotoxicity”. The “Albumin production” value in data set [2] (higher doses, 10 days of compound treatment) is recorded as “slightly reduce albumin production”. In data set [3], this molecule had a half-life at 1 µM of 16 h.
For the molecule `CC[C@H]1[C@@H](O)[C@@H]2[C@H](CC[C@]3(C)[C@@H]([C@H](C)CCC(=O)O)CC[C@@H]23)[C@@]2(C)CC[C@@H](O)C[C@@H]12` [Obeticholic acid], the “Pro-collagen 1” value in data set [1] (0.25 uM, listed as OCA) is 444.17 pg/day and 318.9 pg/day and 467.42 pg/day; in data set [1] (5 uM, listed as OCA) it was 576.99 pg/day and 525.8 pg/day and 497.39 pg/day; in data set [1] (12.5 uM, listed as OCA) it was 448.27 pg/day and 351.02 pg/day and 505.76 pg/day. Also, the TIMP-1 was 197.88 pg/day and 287.39 pg/day and 303.89 pg/day in data set [1] (0.25 uM, listed as OCA); 311.28 pg/day and 328.19 pg/day and 368.24 pg/day in data set [1] (5 uM, listed as OCA); 365.14 pg/day and 327.97 pg/day and 326.64 pg/day in data set [1] (12.5 uM, listed as OCA). The “cytotoxicity in NASH microtissues” value in data set [2] is “does not cause cytotoxicity”. The half-life at 1 µM in data set [3] was 12 h.
